{"source": "paper PMC5218480", "about": "(PLoS ONE, 2017)", "system": "MV-4-11 cells", "assay": "Gene expression microarray analysis (Affymetrix PrimeView) and GSEA", "type": "cell-based, human", "design": "RFU PODN (11730768_x_at) / Fold change /veh PODN (11730768_x_at) / RFU LINC00158 (11744669_a_at) / Fold change /veh LINC00158 (11744669_a_at) / RFU DUSP10 (11751237_a_at) / Fold change /veh DUSP10 (11751237_a_at) / RFU ID3 (11757404_x_at) / Fold change /veh ID3 (11757404_x_at) / RFU PLEKHG5 (11737974_s_at) / Fold change /veh PLEKHG5 (11737974_s_at) / RFU LRRC4B (11730491_at) / Fold change /veh LRRC4B (11730491_at) / RFU GIMAP4 (11747438_a_at) / Fold change /veh GIMAP4 (11747438_a_at) / RFU KRT8 (11758183_x_at) / Fold change /veh KRT8 (11758183_x_at) / RFU CNN1 (11734310_a_at) / Fold change /veh CNN1 (11734310_a_at) / RFU VPS37D (11726825_at) / Fold change /veh VPS37D (11726825_at) / RFU C10orf10 (11716522_x_at) / Fold change /veh C10orf10 (11716522_x_at) / RFU KIR2DL2 /// KIR2DL4 /// KIR2DL5A /// KIR2DL5B /// KIR2DS1 /// KIR2DS2 /// KIR2DS3 /// KIR2DS4 /// KIR3DL3 /// KIR3DL3 /// KIR3DS1 (11738374_at) / Fold change /veh KIR2DL2 /// KIR2DL4 /// KIR2DL5A /// KIR2DL5B /// KIR2DS1 /// KIR2DS2 /// KIR2DS3 /// KIR2DS4 /// KIR3DL3 /// KIR3DL3 /// KIR3DS1 (11738374_at) / RFU C1QL1 (11718748_at) / Fold change /veh C1QL1 (11718748_at) / RFU TMPRSS4 (11747572_a_at) / Fold change /veh TMPRSS4 (11747572_a_at) / RFU HAMP (11756126_x_at) / Fold change /veh HAMP (11756126_x_at) / RFU RNFT2 (11725882_a_at) / Fold change /veh RNFT2 (11725882_a_at) / RFU NR4A2 (11747474_a_at) / Fold change /veh NR4A2 (11747474_a_at) / RFU ABCC12 (11746883_a_at) / Fold change /veh ABCC12 (11746883_a_at) / RFU TMEM136 (11760407_x_at) / Fold change /veh TMEM136 (11760407_x_at) / RFU CLDN22 /// WWC2 (11732394_at) / Fold change /veh CLDN22 /// WWC2 (11732394_at) / RFU HLA-DPB1 (11760878_x_at) / Fold change /veh HLA-DPB1 (11760878_x_at) / RFU SPINT1 (11716480_a_at) / Fold change /veh SPINT1 (11716480_a_at) / RFU GAP43 (11754022_s_at) / Fold change /veh GAP43 (11754022_s_at) / RFU A4GNT (11735810_at) / Fold change /veh A4GNT (11735810_at) / RFU PRB3 (11715151_x_at) / Fold change /veh PRB3 (11715151_x_at) / RFU TUBB4B (11761932_at) / Fold change /veh TUBB4B (11761932_at) / RFU CAPN14 (11732068_a_at) / Fold change /veh CAPN14 (11732068_a_at) / RFU TMCC2 (11721928_a_at) / Fold change /veh TMCC2 (11721928_a_at) / RFU IRGQ (11745062_a_at) / Fold change /veh IRGQ (11745062_a_at) / RFU FAM174B (11720279_a_at) / Fold change /veh FAM174B (11720279_a_at) / RFU TMPRSS4 (11748680_a_at) / Fold change /veh TMPRSS4 (11748680_a_at) / RFU FAM212B (11763350_a_at) / Fold change /veh FAM212B (11763350_a_at) / RFU PLEKHG5 (11743358_a_at) / Fold change /veh PLEKHG5 (11743358_a_at) / RFU ZSCAN30 (11745921_a_at) / Fold change /veh ZSCAN30 (11745921_a_at) / RFU CMKLR1 (11741424_a_at) / Fold change /veh CMKLR1 (11741424_a_at) / RFU LOC101060620 /// MAPK8IP1 (11723275_at) / Fold change /veh LOC101060620 /// MAPK8IP1 (11723275_at) / RFU SPTSSB (11747773_x_at) / Fold change /veh SPTSSB (11747773_x_at) / RFU PRSS12 (11739890_at) / Fold change /veh PRSS12 (11739890_at) / RFU BIN1 (11741810_x_at) / Fold change /veh BIN1 (11741810_x_at) / RFU WNT11 (11732464_a_at) / Fold change /veh WNT11 (11732464_a_at) / RFU C10orf10 (11716521_a_at) / Fold change /veh C10orf10 (11716521_a_at) / RFU C5orf56 (11738089_at) / Fold change /veh C5orf56 (11738089_at) / RFU CYB561 (11721691_x_at) / Fold change /veh CYB561 (11721691_x_at) / RFU ANKRD19P (11752326_a_at) / Fold change /veh ANKRD19P (11752326_a_at) / RFU OR2T12 /// OR2T33 /// OR2T8 (11738714_s_at) / Fold change /veh OR2T12 /// OR2T33 /// OR2T8 (11738714_s_at) / RFU VCAN (11748164_a_at) / Fold change /veh VCAN (11748164_a_at) / RFU JSRP1 (11732532_at) / Fold change /veh JSRP1 (11732532_at) / RFU KRTAP10-11 (11738290_x_at) / Fold change /veh KRTAP10-11 (11738290_x_at) / RFU MYO3A (11730013_a_at) / Fold change /veh MYO3A (11730013_a_at) / RFU EBF3 (11725865_a_at) / Fold change /veh EBF3 (11725865_a_at) / RFU CAMK2N1 (11719241_x_at) / Fold change /veh CAMK2N1 (11719241_x_at) / RFU C5orf56 (11738088_a_at) / Fold change /veh C5orf56 (11738088_a_at) / RFU OLFML3 (11715873_a_at) / Fold change /veh OLFML3 (11715873_a_at) / RFU LOC100653217 /// NTM (11731650_a_at) / Fold change /veh LOC100653217 /// NTM (11731650_a_at) / RFU MAPK11 (11762145_a_at) / Fold change /veh MAPK11 (11762145_a_at) / RFU FIZ1 (11724087_x_at) / Fold change /veh FIZ1 (11724087_x_at) / RFU OASL (11726364_x_at) / Fold change /veh OASL (11726364_x_at) / RFU SOX15 (11748057_x_at) / Fold change /veh SOX15 (11748057_x_at) / RFU CD79A (11719716_a_at) / Fold change /veh CD79A (11719716_a_at) / RFU HIST1H1D (11736915_at) / Fold change /veh HIST1H1D (11736915_at) / RFU CASKIN2 (11723855_a_at) / Fold change /veh CASKIN2 (11723855_a_at) / RFU LOC730098 (11760151_x_at) / Fold change /veh LOC730098 (11760151_x_at) / RFU OR4N2 (11742367_at) / Fold change /veh OR4N2 (11742367_at) / RFU PRRT2 (11749266_a_at) / Fold change /veh PRRT2 (11749266_a_at) / RFU SNX32 (11753110_a_at) / Fold change /veh SNX32 (11753110_a_at) / RFU CDHR5 (11726645_a_at) / Fold change /veh CDHR5 (11726645_a_at) / RFU RCAN1 (11760418_a_at) / Fold change /veh RCAN1 (11760418_a_at) / RFU FAM167A (11723789_a_at) / Fold change /veh FAM167A (11723789_a_at) / RFU FAM26E (11764081_at) / Fold change /veh FAM26E (11764081_at) / RFU ISYNA1 (11749810_s_at) / Fold change /veh ISYNA1 (11749810_s_at) / RFU ACY1 (11761880_at) / Fold change /veh ACY1 (11761880_at) / RFU 11764098_at / Fold change /veh 11764098_at / RFU SAMD14 (11745864_x_at) / Fold change /veh SAMD14 (11745864_x_at) / RFU NPB (11741838_a_at) / Fold change /veh NPB (11741838_a_at) / RFU TMPRSS6 (11731388_a_at) / Fold change /veh TMPRSS6 (11731388_a_at) / RFU KRTAP10-2 (11738614_at) / Fold change /veh KRTAP10-2 (11738614_at) / RFU ARHGAP8 /// PRR5-ARHGAP8 (11727945_x_at) / Fold change /veh ARHGAP8 /// PRR5-ARHGAP8 (11727945_x_at) / RFU KRTAP5-7 /// NADSYN1 (11734609_at) / Fold change /veh KRTAP5-7 /// NADSYN1 (11734609_at) / RFU RASL12 (11751679_a_at) / Fold change /veh RASL12 (11751679_a_at) / RFU CDKN2B (11736163_a_at) / Fold change /veh CDKN2B (11736163_a_at) / RFU PRF1 (11729649_at) / Fold change /veh PRF1 (11729649_at) / RFU, ZNF638 /// ZNF638-IT1 / Fold change vs veh, ZNF638 /// ZNF638-IT1 / RFU, PANK3 / Fold change vs veh, PANK3 / RFU, SH3YL1 / Fold change vs veh, SH3YL1 / RFU, ZEB2 / Fold change vs veh, ZEB2 / RFU, NRIP1 / Fold change vs veh, NRIP1 / RFU, PTTG1IP / Fold change vs veh, PTTG1IP / RFU, CAPN2 / Fold change vs veh, CAPN2 / RFU, MED14 / Fold change vs veh, MED14 / RFU, SNORA58 / Fold change vs veh, SNORA58 / RFU, C1orf63 / Fold change vs veh, C1orf63 / RFU, LRRFIP1 / Fold change vs veh, LRRFIP1 / RFU, NDUFAF7 / Fold change vs veh, NDUFAF7 / RFU, SLC12A2 / Fold change vs veh, SLC12A2 / RFU, IBTK / Fold change vs veh, IBTK / RFU, ESF1 / Fold change vs veh, ESF1 / Fold change vs veh, TMEM50B / RFU, TAOK1 / Fold change vs veh, TAOK1 / RFU, ACBD3 / Fold change vs veh, ACBD3 / RFU, TMA16 / Fold change vs veh, TMA16 / RFU, RWDD3 / Fold change vs veh, RWDD3 / RFU, BCAT1 / Fold change vs veh, BCAT1 / RFU, EDEM3 / Fold change vs veh, EDEM3 / RFU, TMEM33 / Fold change vs veh, TMEM33 / RFU, WDR75 / Fold change vs veh, WDR75 / RFU, AHCTF1 / Fold change vs veh, AHCTF1 / RFU, TFRC / Fold change vs veh, TFRC / RFU, ZDHHC17 / Fold change vs veh, ZDHHC17 / RFU, NOM1 / Fold change vs veh, NOM1 / RFU, ARL8B / Fold change vs veh, ARL8B / RFU, ZBTB11 / Fold change vs veh, ZBTB11 / RFU, TAMM41 / Fold change vs veh, TAMM41 / RFU, KIAA1704 /// LOC100996395 / Fold change vs veh, KIAA1704 /// LOC100996395 / RFU, ING1 / Fold change vs veh, ING1 / RFU, TRMT61B / Fold change vs veh, TRMT61B / RFU, FUBP3 / Fold change vs veh, FUBP3 / RFU, TP53 / Fold change vs veh, TP53 / RFU, TNKS2 / Fold change vs veh, TNKS2 / RFU, ZFP14 / Fold change vs veh, ZFP14 / RFU, ACTR2 / Fold change vs veh, ACTR2 / RFU, PPP3R1 / Fold change vs veh, PPP3R1 / RFU, PIK3R1 / Fold change vs veh, PIK3R1 / RFU, HNRNPA1 / Fold change vs veh, HNRNPA1 / RFU, RNF170 / Fold change vs veh, RNF170 / RFU, ZNF28 / Fold change vs veh, ZNF28 / RFU, RNGTT / Fold change vs veh, RNGTT / RFU, OGT / Fold change vs veh, OGT / RFU, BRD1 / Fold change vs veh, BRD1 / RFU, MARS / Fold change vs veh, MARS / RFU, ZNF655 / Fold change vs veh, ZNF655 / RFU, FAHD1 / Fold change vs veh, FAHD1 / RFU, BDP1 / Fold change vs veh, BDP1 / RFU, LRRCC1 / Fold change vs veh, LRRCC1 / RFU, ARID1A / Fold change vs veh, ARID1A / RFU, ZNF146 / Fold change vs veh, ZNF146 / RFU, ZNF330 / Fold change vs veh, ZNF330 / RFU, GPN3 / Fold change vs veh, GPN3 / RFU, C9orf123 / Fold change vs veh, C9orf123 / RFU, N4BP2L2 / Fold change vs veh, N4BP2L2 / RFU, ARFIP1 / Fold change vs veh, ARFIP1 / RFU, FAM179B / Fold change vs veh, FAM179B / RFU, BCL10 / Fold change vs veh, BCL10 / RFU, UHRF1BP1L / Fold change vs veh, UHRF1BP1L / RFU, BET1 / Fold change vs veh, BET1 / RFU, CNOT2 / Fold change vs veh, CNOT2 / RFU, ZNF268 / Fold change vs veh, ZNF268 / Fold change vs veh, ZNF507 / RFU, DGCR2 / Fold change vs veh, DGCR2 / RFU, WDSUB1 / Fold change vs veh, WDSUB1 / Fold change vs veh, HSP90B1 /// MIR3652 / RFU, ADSS / Fold change vs veh, ADSS / RFU, GK / Fold change vs veh, GK / RFU, ZNF148 / Fold change vs veh, ZNF148 / RFU, TAF9 / Fold change vs veh, TAF9 / RFU, SLC1A5 / Fold change vs veh, SLC1A5 / RFU, SLMO2 / Fold change vs veh, SLMO2 / RFU, ABCC4 / Fold change vs veh, ABCC4 / RFU, LOC101060439 /// RAP1B / Fold change vs veh, LOC101060439 /// RAP1B / RFU, RFX7 / Fold change vs veh, RFX7 / RFU, GTPBP10 / Fold change vs veh, GTPBP10 / RFU, CNEP1R1 / Fold change vs veh, CNEP1R1 / RFU, BIVM-ERCC5 /// ERCC5 / Fold change vs veh, BIVM-ERCC5 /// ERCC5 / RFU, ILF3 / Fold change vs veh, ILF3 / RFU 11762660_at / Fold change /veh 11762660_at / RFU VCAN (11757783_s_at) / Fold change /veh VCAN (11757783_s_at) / RFU DDX43 (11728927_at) / Fold change /veh DDX43 (11728927_at) / RFU KRT8 (11758188_x_at) / Fold change /veh KRT8 (11758188_x_at) / RFU NKD1 (11759106_at) / Fold change /veh NKD1 (11759106_at) / RFU SRD5A1 (11742802_a_at) / Fold change /veh SRD5A1 (11742802_a_at) / RFU TPSAB1 /// TPSB2 (11721975_s_at) / Fold change /veh TPSAB1 /// TPSB2 (11721975_s_at) / RFU GSTM3 (11746129_a_at) / Fold change /veh GSTM3 (11746129_a_at) / RFU IL23R (11737362_x_at) / Fold change /veh IL23R (11737362_x_at) / RFU TMEM51 (11727254_a_at) / Fold change /veh TMEM51 (11727254_a_at) / RFU PIWIL2 (11732686_x_at) / Fold change /veh PIWIL2 (11732686_x_at) / RFU ORM1 (11744905_x_at) / Fold change /veh ORM1 (11744905_x_at) / RFU CCDC152 (11743942_at) / Fold change /veh CCDC152 (11743942_at) / RFU ECM1 (11717891_a_at) / Fold change /veh ECM1 (11717891_a_at) / RFU IL23R (11748794_a_at) / Fold change /veh IL23R (11748794_a_at) / RFU TNFAIP8L3 (11732012_x_at) / Fold change /veh TNFAIP8L3 (11732012_x_at) / RFU MBOAT4 (11741988_at) / Fold change /veh MBOAT4 (11741988_at) / RFU 11764193_at / Fold change /veh 11764193_at / RFU TMEM53 (11763286_at) / Fold change /veh TMEM53 (11763286_at) / RFU MAGEB2 (11727129_at) / Fold change /veh MAGEB2 (11727129_at) / RFU TMEM200A (11744735_a_at) / Fold change /veh TMEM200A (11744735_a_at) / RFU CCDC152 (11751479_a_at) / Fold change /veh CCDC152 (11751479_a_at) / RFU FAM211A (11726209_a_at) / Fold change /veh FAM211A (11726209_a_at) / RFU RGS16 (11746705_a_at) / Fold change /veh RGS16 (11746705_a_at) / RFU VCAN (11755009_s_at) / Fold change /veh VCAN (11755009_s_at) / RFU RHOB (11743442_s_at) / Fold change /veh RHOB (11743442_s_at) / RFU RGS16 (11720943_a_at) / Fold change /veh RGS16 (11720943_a_at) / RFU RGS16 (11720944_at) / Fold change /veh RGS16 (11720944_at) / RFU, VPS4B / Fold change vs veh, VPS4B / RFU, CREB1 / Fold change vs veh, CREB1 / RFU, DNAJC13 / Fold change vs veh, DNAJC13 / RFU, GNAQ / Fold change vs veh, GNAQ / RFU, CDK5R1 / Fold change vs veh, CDK5R1 / RFU, ZRANB3 / Fold change vs veh, ZRANB3 / RFU, CUL4A / Fold change vs veh, CUL4A / RFU, CCNY / Fold change vs veh, CCNY / RFU, UFL1 / Fold change vs veh, UFL1 / RFU, COG3 / Fold change vs veh, COG3 / RFU, DIAPH2 / Fold change vs veh, DIAPH2 / RFU, SKA2 / Fold change vs veh, SKA2 / RFU, AFF3 / Fold change vs veh, AFF3 / RFU, LMF1 / Fold change vs veh, LMF1 / RFU, IPO11 / Fold change vs veh, IPO11 / RFU, DFFB / Fold change vs veh, DFFB / RFU, FOXP1 / Fold change vs veh, FOXP1 / RFU, CARD8 / Fold change vs veh, CARD8 / RFU, STRN3 / Fold change vs veh, STRN3 / RFU, ADK / Fold change vs veh, ADK / RFU, RASSF2 / Fold change vs veh, RASSF2 / RFU, WIPF1 / Fold change vs veh, WIPF1 / RFU, LARP1B / Fold change vs veh, LARP1B / RFU, RASA1 / Fold change vs veh, RASA1 / RFU, RB1 / Fold change vs veh, RB1 / RFU, PPFIA1 / Fold change vs veh, PPFIA1 / RFU, MAT2A / Fold change vs veh, MAT2A / RFU, CCT5 / Fold change vs veh, CCT5 / RFU, WDR92 / Fold change vs veh, WDR92 / RFU, CUX1 / Fold change vs veh, CUX1 / RFU, TTC7A / Fold change vs veh, TTC7A / RFU, TMEM135 / Fold change vs veh, TMEM135 / RFU, DEPTOR / Fold change vs veh, DEPTOR / RFU, CPM / Fold change vs veh, CPM / RFU, DNAJB6 / Fold change vs veh, DNAJB6 / RFU, CACNA2D3 / Fold change vs veh, CACNA2D3 / RFU, DTX4 / Fold change vs veh, DTX4 / RFU, TFCP2 / Fold change vs veh, TFCP2 / RFU, GMCL1 /// GMCL1P1 / Fold change vs veh, GMCL1 /// GMCL1P1 / RFU, AEBP2 / Fold change vs veh, AEBP2 / RFU, SNHG1 /// SNORD22 /// SNORD25 /// SNORD26 /// SNORD27 /// SNORD28 /// SNORD29 /// SNORD31 / Fold change vs veh, SNHG1 /// SNORD22 /// SNORD25 /// SNORD26 /// SNORD27 /// SNORD28 /// SNORD29 /// SNORD31 / Fold change (Aza/veh), C12orf56 (ProbeSet 11735607_a_at) / Fold change (ACY-1035/veh), C12orf56 (ProbeSet 11735607_a_at) / Fold change (Aza/veh), FGFR1OP (ProbeSet 11751329_s_at) / Fold change (ACY-1035/veh), FGFR1OP (ProbeSet 11751329_s_at) / Fold change (Aza/veh), VPS36 (ProbeSet 11739960_a_at) / Fold change (ACY-1035/veh), VPS36 (ProbeSet 11739960_a_at) / RFU SYPL1 (11715823_x_at) / Fold change /veh SYPL1 (11715823_x_at) / RFU IGFBP7 (11715501_s_at) / Fold change /veh IGFBP7 (11715501_s_at) / RFU REEP3 (11722064_at) / Fold change /veh REEP3 (11722064_at) / RFU IGLL1 (11728026_x_at) / Fold change /veh IGLL1 (11728026_x_at): dose or concentration left out as unconfirmed", "conditions": "ProbeSet 11755436_x_at; LIST B", "data": [{"compound": "Nc1ccc(-c2cccs2)cc1NC(=O)c1ccc2c(c1)cc(C1CC1)n2CCN1CCOCC1", "note": "[ACY-1035]", "values": [{"measurement": "RFU, ARID1A", "value": 56.79, "unit": "RFU"}]}]}
